Experiments:
[1] = tested on: feline CD3^+CD4^+ T cells; experiment: CFSE-based feline CD3+CD4+ T-cell proliferation; parameters: species or system cat; details: FIV-vaccinated cats; for CD4, frequency of responders: FIV epitope peptide; for CDC4^+ T (T-cell proliferation), frequency of responders: FIV peptides
Method: (§1) Carboxyfluorescein diacetate succinimide ester (CFSE)-proliferation was performed according to the manufacturer's protocol (Invitrogen, Grand Island, N.Y.) and processed using a previously described modification. The modification consisted of 2.5×10^5 CFSE-labeled feline PBMC stimulated for 5 days (37° C., 5% CO2) with 4 μg/mL peptide in culture media (RPMI medium 25 µg/mL gentamycin, and 10% heat-inactivated fetal bovine serum (FBS)). Peptide pools consisted of 3-5 overlapping peptides of 4 μg/mL each. The antibodies used for flow cytometry based proliferation analysis consisted of murine anti-feline (Fe) CD3 monoclonal antibody (MAb clone kindly provided by Drs. Yorihiro Nishimura and Takayuki Miyazawa; described in [32]) combined with secondary goat anti-mouse IgG3-APC/CY7 MAb (SouthernBiotech, Birmingham, Ala.; Cat#1100-19); and murine anti-FeCD4-PE MAb (SouthernBiotech, Cat#8130-09); and murine anti-FeCD8 MAb (MAb clone kindly provided by Dr. Nazareth Gengozian, described in [33]) with secondary goat anti-mouse IgG2a-PE/CY7 (Southern Biotech, Cat#1080-17). The murine anti-B220-APC MAb for detecting feline B cells (SouthernBiotech, Cat#1665-11) and previously described MAbs for CFSE were used for FACS phenotyping. Both FACS phenotyping and CFSE-proliferation analyses were performed with BD LSRII and FACSDiva™ Software (BD Biosciences, San Jose, Calif.). The final value for each sample was derived after subtraction of the average value of the media controls using a positive threshold of ≥1 CFSE^low.
(§2) Concurrently, the overlapping peptide pools of FIV structural/enzyme proteins were used to stimulate PBMC and T cells from FIV-vaccinated cats. These cats were vaccinated with prototype dual-subtype FIV vaccine which was the prototype to our commercial FIV vaccine (Coleman et al., 2014). The feline assays (Example 1) equivalent to those of human assays (Sanou et al., 2013; Roff et al., 2015) were used except for ICS analysis. In place of ICS for cytolysin/cytotoxins, IL2 ELISpot analysis was performed. […] The results for FIV-vaccinated cats included IFNγ and IL2 productions and CD3^+CD4+ and CD3^+CD8^+ T-cell proliferation (Table 9, the second set of results).
(§3) Carboxyfluorescein diacetate succinimide ester (CFSE)-proliferation analysis was according to the manufacturer's protocol (Invitrogen-Fisher, Carlsbad, Calif.) and processed as previously described (Roff et al. (2015)) using the following modifications: anti-feline CD3 antibody ((clone NZM1), a generous gift from T. Miyazawa (Univ. of Tokyo, Japan)) in combination with APC-conjugated anti-mouse IgG3 (Southern Biotech, Birmingham, Ala.), PE-conjugated anti-feline CD4 antibody (Southern Biotech), and anti-feline CD8 antibody (gift from N. Gengozian, University of Tennessee (Gengozian et al. (1997))) in combination with PE/Cy7-conjugated anti-mouse IgG2b (Southern Biotech) to detect the proliferation of feline CD3^+CD4+ T cells and feline […]. All results shown in the figures (FIGS. 7A-1, 7B-1, 7A-2, 7B-2, 7A-3, 7B-3) are after subtracting the average value of each results from all control cats. The threshold of CFSE proliferation is ≥0.5 CFSE^low. […]

[2] = tested on: PBMC from FIV-vaccinated cats; experiment: Feline IFNγ ELISpot of PBMC from vaccinated cats; type: cell-based, cat; details: for IFNγ production: cats of Group 1, MAP Vaccine Trial 1 (FIG. 3)
Method: (§4) IFNγ and IL2 ELISpot analyses were performed using feline IFNγ ELISpot and feline IL2 ELISpot kits (R&D Systems, Cat# SEL764 and SEL1890) as described. The threshold is defined as ≥50 spot forming units (SFU) per 1×10^6 PBMC when counted with MVS ELISpot Reader (MVS Pacific, LLC). Each result is an average of the duplicate samples after subtraction of the average value of the media controls.
as §2
(§5) The feline IFNγ and L2 ELISpot analyses of PBMC to FIV MAPs and peptides were performed as previously described (Abbott et al. (2012)) using feline IFNγ modular kit (R&D Systems, Minneapolis, Minn.) and feline IL2 modular kit (R&D Systems). All results shown in the figures (FIGS. 8A-1, 8B-1, 8A-2, 8B-2, 8A-3, 8B-3) are after subtracting the average value of the results from all control cats.
(§6) The second parameter evaluated was the ability of the peripheral blood mononuclear cells (PBMC) from vaccinated and control cats to produce IL2 and interferon-γ (IFNγ) proteins in responses to FIV MAPs and peptides (FIGS. 8A-1, 8A-2, 8A-3, 8B-1, 8B-2, 8B-3) using feline IL2 and IFNγ ELISpot assays (Aranyos et al. (2016); Abbott et al. (2012)). IL2 enhances the proliferation of FIV-specific CD4^+ T cells and CD8^+ T cells. IFNγ is known enhance the FIV-specific CTL activities in vaccinated cats (Abbas et al. (2015)).

[3] = tested on: PBMC from FIV-vaccinated cats; experiment: Feline IL2 ELISpot of PBMC from vaccinated cats; type: cell-based, cat
Method: as §4, §2, §5, §6

[4] = tested on: feline CD3^+CD8^+ T cells; experiment: CFSE-based feline CD3+CD8+ T-cell proliferation; parameters: species or system cat; details: for CD8, frequency of responders: FIV epitope peptide; for CD8, frequency of responders / CD8^+ T (T-cell proliferation), frequency of responders: FIV-vaccinated cats; for CD8^+ T (T-cell proliferation), frequency of responders: FIV peptides; for % CD8+ T-cell CFSE^low over % CD4+ T-cell CFSE^low ratio (CD8/CD4 response ratio): cats of Group 1, MAP Vaccine Trial 1 (FIG. 3)
Method: as §1, §2, §3

[5] = FIV epitope peptide, FIV-vaccinated cats
[6] = FIV peptides, FIV-vaccinated cats (prototype dual-subtype vaccine)

Question: With AAAPVNQMQQAVMPSA [FNC2] as the sequence, how does the “CD4, frequency of responders” value [1] read?
Answer: — (0%-1.4% (—))

Question: And the “CDC4^+ T (T-cell proliferation), frequency of responders” value (“CDC4^+ T (T-cell proliferation)” below) [1]?
Answer: — (0%-1.4%(—))

Question: And the “IFNγ, frequency of responders” value [2, 5]?
Answer: ++++ (>54% (++++))

Question: What about the “IFNγ, frequency of responders” value [2, 6] of the same sequence?
Answer: ++++ (>54% (++++))

Question: And the “IL2, frequency of responders” value ([3]; FIV epitope peptide)?
Answer: ++++ (>54% (++++))

Question: And the “IL2, frequency of responders” value ([3]; FIV peptides)?
Answer: ++++ (>54% (++++))

Question: What about the “CD8, frequency of responders” value [4] of the same sequence?
Answer: ++++ (>54% (++++))

Question: What about the “CD8^+ T (T-cell proliferation), frequency of responders” value (“CD8^+ T (T-cell proliferation)” for short) [4] of the same sequence?
Answer: ++++ (>54% (++++))

Question: How did the “CDC4^+ T (T-cell proliferation)” value [1] turn out when “GRRYVWCSLPQGWVLSPLIY [FRT7-1/2, overlapping peptide of MAP5]” was run?
Answer: +++ (40.1%-54% (+++))

Question: What about the “IFNγ, frequency of responders” value [2, 6] of the same sequence?
Answer: +++ (40.1%-54% (+++))

Question: And the IFNγ production [2]?
Answer: no IFNγ response

Question: What about the “IL2, frequency of responders” value ([3]; FIV peptides) of the same sequence?
Answer: +++ (40.1%-54% (+++))

Question: What about the “CD8^+ T (T-cell proliferation)” value [4] of the same sequence?
Answer: +++ (40.1%-54% (+++))

Question: What about the “% CD8+ T-cell CFSE^low over % CD4+ T-cell CFSE^low ratio (CD8/CD4 response ratio)” value [4] of the same sequence?
Answer: 11

Question: For TLEKRPEILIFVNG [FPR1], which “CD4, frequency of responders” value [1] is on record?
Answer: ++++ (>54% (++++))

Question: What about the “CDC4^+ T (T-cell proliferation)” value [1] of the same sequence?
Answer: ++++ (>54% (++++))

Question: And the “IFNγ, frequency of responders” value [2, 5]?
Answer: — (0%-1.4% (—))

Question: What about the “IFNγ, frequency of responders” value [2, 6] of the same sequence?
Answer: — (0%-1.4%(—))

Question: What about the “IL2, frequency of responders” value ([3]; FIV epitope peptide) of the same sequence?
Answer: — (0%-1.4% (—))

Question: What about the “IL2, frequency of responders” value ([3]; FIV peptides) of the same sequence?
Answer: — (0%-1.4%(—))

Question: What about the “CD8, frequency of responders” value [4] of the same sequence?
Answer: ++++ (>54% (++++))

Question: What about the “CD8^+ T (T-cell proliferation)” value [4] of the same sequence?
Answer: ++++ (>54% (++++))

Question: With GSSKEIDMAIVTLKV [FMA2] as the sequence, how does the “CD4, frequency of responders” value [1] read?
Answer: ++++ (>54% (++++))

Question: What about the “CDC4^+ T (T-cell proliferation)” value [1] of the same sequence?
Answer: ++++ (>54% (++++))

Question: What about the “IFNγ, frequency of responders” value [2, 5] of the same sequence?
Answer: ++ (26%-40% (++))

Question: What about the “IFNγ, frequency of responders” value [2, 6] of the same sequence?
Answer: ++ (25.1%-40% (++))

Question: And the “IL2, frequency of responders” value ([3]; FIV epitope peptide)?
Answer: ++ (26%-40% (++))

Question: And the “IL2, frequency of responders” value ([3]; FIV peptides)?
Answer: ++ (25.1%-40% (++))

Question: What about the “CD8, frequency of responders” value [4] of the same sequence?
Answer: ++++ (>54% (++++))

Question: What about the “CD8^+ T (T-cell proliferation)” value [4] of the same sequence?
Answer: ++++ (>54% (++++))

Question: With WRMLIDFRVLNKLTDKGA [FRT3-4/5] as the sequence, how does the “CDC4^+ T (T-cell proliferation)” value [1] read?
Answer: — (0%-1.4%(—))

Question: And the “IFNγ, frequency of responders” value [2, 6]?
Answer: — (0%-1.4%(—))

Question: What about the “IL2, frequency of responders” value ([3]; FIV peptides) of the same sequence?
Answer: +++ (40.1%-54% (+++))

Question: What about the “CD8^+ T (T-cell proliferation)” value [4] of the same sequence?
Answer: — (0%-1.4%(—))

Question: What does the source list for NVAVGVGGKSKKF [FMA1]?
Answer: CD4, frequency of responders [1]: +++ (41%-54% (+++)); CDC4^+ T (T-cell proliferation), frequency of responders [1]: +++ (40.1%-54% (+++)); IFNγ, frequency of responders [2, 5]: ++++ (>54% (++++)); IFNγ, frequency of responders [2, 6]: ++++ (>54% (++++)); IL2, frequency of responders ([3]; FIV peptides): — (0%-1.4%(—)); CD8, frequency of responders [4]: ++++ (>54% (++++)); CD8^+ T (T-cell proliferation), frequency of responders [4]: ++++ (>54% (++++))

Question: How did the “CDC4^+ T (T-cell proliferation)” value [1] turn out when “AEVKLYLKQSLSIANA [Fp14-3/4, overlapping peptide of MAP3]” was run?
Answer: +++ (40.1%-54% (+++))

Question: And the “IFNγ, frequency of responders” value [2, 6]?
Answer: +++ (40.1%-54% (+++))

Question: What about the IFNγ production [2] of the same sequence?
Answer: 96 SFU/10^6 PBMC

Question: And the “IL2, frequency of responders” value ([3]; FIV peptides)?
Answer: ++++ (>54% (++++))

Question: What about the “CD8^+ T (T-cell proliferation)” value [4] of the same sequence?
Answer: +++ (40.1%-54% (+++))

Question: What about the “% CD8+ T-cell CFSE^low over % CD4+ T-cell CFSE^low ratio (CD8/CD4 response ratio)” value [4] of the same sequence?
Answer: 4.8

Question: For KFLLDTGADITILN [FPR2], which “CD4, frequency of responders” value [1] is on record?
Answer: ++++ (>54% (++++))

Question: What about the “CDC4^+ T (T-cell proliferation)” value [1] of the same sequence?
Answer: ++++ (>54% (++++))

Question: What about the “IFNγ, frequency of responders” value [2, 5] of the same sequence?
Answer: ++++ (>54% (++++))

Question: What about the “IFNγ, frequency of responders” value [2, 6] of the same sequence?
Answer: ++++ (>54% (++++))

Question: And the “IL2, frequency of responders” value ([3]; FIV epitope peptide)?
Answer: ++++ (>54% (++++))

Question: What about the “IL2, frequency of responders” value ([3]; FIV peptides) of the same sequence?
Answer: ++++ (>54% (++++))

Question: And the “CD8, frequency of responders” value [4]?
Answer: ++++ (>54% (++++))

Question: What about the “CD8^+ T (T-cell proliferation)” value [4] of the same sequence?
Answer: ++++ (>54% (++++))
